Test results as given in patent US20050265999A1, “Modulation of 5-HT2 receptors as a treatment for cardiovascular diseases” (Myogen, Inc., priority 2003, published 2005).

Key:
5-HT1 = test: Radioligand receptor binding assay; conditions: 10 μM compound, n=2
Description: (§1) Receptor binding assays. Receptor binding assays were performed by MDS Pharma services. Assays included: Adenosine A1 (cat# 200510), Adenosine A2A (cat# 200610), Adenosine A3 (cat# 200720), Adrenergic alpha 1 (cat# 203500), Imidazoline 12 central (cat# 241000), Imidazoline I2 peripheral (cat# 241100), Inositol triphosphate (cat# 242500), Phorbol Ester (cat# 264500), 5-HT 2B (cat# 271700), and 5-HT 4 (cat# 272000).
(§2) • Summary of radioligand binding assays for 11 receptors. Data represent % inhibition of ligand binding in the presence of 10 μM 18264 (n=2).
(§3) • Summary of radioligand binding assays for three receptors. Data represent % inhibition of ligand binding in the presence of 10 μM 20068 (n=2).

5-HT2B = molecular target: T1, 5-HT2B (Homo sapiens, UniProt P41595); test: Radioligand receptor binding assay (MDS Pharma); conditions: 10 μM compound, n=2
T1 construct: purchased MDS Pharma services 271700
T1 sequence (P41595 whole entry): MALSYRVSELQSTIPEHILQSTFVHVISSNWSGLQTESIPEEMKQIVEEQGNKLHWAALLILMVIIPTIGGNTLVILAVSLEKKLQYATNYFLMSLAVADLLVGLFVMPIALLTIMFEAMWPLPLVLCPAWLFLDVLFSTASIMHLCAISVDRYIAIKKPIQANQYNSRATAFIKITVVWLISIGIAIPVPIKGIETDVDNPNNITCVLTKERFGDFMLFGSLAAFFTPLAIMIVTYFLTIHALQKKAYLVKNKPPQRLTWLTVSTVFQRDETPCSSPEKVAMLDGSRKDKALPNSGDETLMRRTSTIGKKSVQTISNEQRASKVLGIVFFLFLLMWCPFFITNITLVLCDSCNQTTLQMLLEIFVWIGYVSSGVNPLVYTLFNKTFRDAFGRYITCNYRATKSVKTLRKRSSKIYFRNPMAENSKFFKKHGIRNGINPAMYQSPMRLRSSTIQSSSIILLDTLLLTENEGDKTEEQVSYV
Description: as §1, §2, §3

5-HT2C = molecular target: T2, 5-HT2C (Homo sapiens, UniProt P28335); test: Radioligand receptor binding assay; conditions: 10 μM compound, n=2
T2 sequence (P28335 33-458): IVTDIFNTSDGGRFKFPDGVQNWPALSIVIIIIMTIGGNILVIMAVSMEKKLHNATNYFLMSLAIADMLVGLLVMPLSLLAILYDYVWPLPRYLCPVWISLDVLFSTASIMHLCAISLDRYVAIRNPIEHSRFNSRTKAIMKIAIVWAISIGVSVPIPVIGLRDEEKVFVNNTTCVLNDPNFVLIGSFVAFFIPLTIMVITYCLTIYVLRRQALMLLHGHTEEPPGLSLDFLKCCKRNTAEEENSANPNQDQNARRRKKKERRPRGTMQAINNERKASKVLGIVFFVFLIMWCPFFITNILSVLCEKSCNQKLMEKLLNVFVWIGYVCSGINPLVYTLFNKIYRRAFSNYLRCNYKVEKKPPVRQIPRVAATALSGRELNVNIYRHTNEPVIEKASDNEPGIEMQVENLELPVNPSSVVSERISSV

[1] = tested on: 28 kDa calcineurin-regulated MCIP1 protein; test: Western blot of MCIP1 protein in NRVM; type: cell-based, rat; conditions: NRVM stimulated with 18264 (1 μM), 48 h; CsA 500 nM; ketanserin, cyproheptadine 0.3 and 3 μM; 20068 1 and 3 μM
Description: (§4) NRVM culture. For preparations of neonatal rat ventricular myocytes (NRVMs), hearts were removed from 10-20 newborn (1-2 days old) Sprague-Dawley rats. Isolated ventricles were pooled, minced and dispersed by three 20-min incubations at 37° C. in Ads buffer (116 mM NaCl, 20 mM HEPES, 10 mM NaH2PO4, 5.5 mM glucose, 5 mM KCl, 0.8 mM MgSO4, pH 7.4) containing collagenase Type II (65 units/ml, Worthington) and pancreatin (0.6 mg/ml, GibcoBRL). Dispersed cells were applied to a discontinuous gradient of 40.5% and 58.5% (v/v) Percoll (Amersham Biosciences), centrifuged, and myocytes collected from the interface layer. Myocyte preparations were pre-plated in Dulbecco's modified Eagle's medium (DMEM, Cellgro), supplemented with 10% (v/v) fetal bovine serum (FBS, HyClone), 4 mM L-glutamine and 1% penicillin/streptomycin for 1 hour at 37° C. to reduce fibroblast contamination, then plated at a density of 2.5×10^5 cells per well on 6-well tissue culture plates (or 10,000 cells/well on 96-well tissue culture plates) coated with a 0.2% (w/v) gelatin solution. […]
Western Blots. […] Protein concentrations were determined by the bicinchoninic acid method (BCA Protein Assay, Pierce) with bovine serum albumin as a standard. Equivalent quantities of protein samples ([…]) were denatured in Laemmli buffer and resolved on Tris-glycine SDS-PAGE gels (4-20% acrylamide gradient, Invitrogen). […]

[2] = tested on: neonatal rat ventricular myocytes (NRVM); test: ANF secretion by competitive ELISA in NRVM; type: cell-based; conditions: NRVM stimulated with 18264 (1 μM), 48 h; antagonist up to 3 μM
Description: as §4
(§5) Hypertrophy and toxicity assays. Primary hypertrophy endpoints for NRVM included quantitation of: ANF secretion, total cellular protein and cell volume. ANF in media supernatants was quantitated by competitive ELISA using a monoclonal anti-ANF antibody (Biodesign) and a biotinylated ANF peptide (Phoenix Peptide). Total cellular protein was quantitated by standard Coomassie dye-binding assay; cells were lysed in protein assay reagent (BioRad) and absorbance at A595 was measured after 1 hour. […] After recovery by centrifugation, cell pellets were washed in PBS, resuspended in 10 ml IsoFlow electrolyte solution (Beckman-Coulter) and analyzed with a Z2 Coulter Particle Counter and Size Analyzer (Beckman-Coulter). Cytotoxicity was quantitated by measuring release of adenylate kinase (AK) from cultured NRVM into culture medium (ToxiLight kit, Cambrex).

[3] = tested on: neonatal rat ventricular myocytes (NRVM); test: Total cellular protein (Coomassie dye-binding) in NRVM; type: cell-based; conditions: PE-stimulated (20 μM) NRVM, 0.1-3 μM compound, 48 hours
Description: NRVM culture. For preparations of neonatal rat ventricular myocytes (NRVMs), hearts were removed from 10-20 newborn (1-2 days old) Sprague-Dawley rats. Isolated ventricles were pooled, minced and dispersed by three 20-min incubations at 37° C. in Ads buffer (116 mM NaCl, 20 mM HEPES, 10 mM NaH2PO4, 5.5 mM glucose, 5 mM KCl, 0.8 mM MgSO4, pH 7.4) containing collagenase Type II (65 units/ml, Worthington) and pancreatin (0.6 mg/ml, GibcoBRL). Dispersed cells were applied to a discontinuous gradient of 40.5% and 58.5% (v/v) Percoll (Amersham Biosciences), centrifuged, and myocytes collected from the interface layer. […]
as §5, with “Cytotoxicity was quantitated by measuring release of adenylate kinase (AK) from cultured NRVM into culture medium (ToxiLight kit, Cambrex).” left out

[4] = tested on: neonatal rat ventricular myocytes (NRVM); test: Cell volume measurement (Coulter counter) of NRVM; type: cell-based; conditions: PE-stimulated (20 μM) NRVM, 48 hours
Description: as §4, §5

HDAC5 = test: HDAC localization assay, GFP-HDAC5 in NRVM; type: cell-based, rat
Description: NRVM culture. For preparations of neonatal rat ventricular myocytes (NRVMs), hearts were removed from 10-20 newborn (1-2 days old) Sprague-Dawley rats. Isolated ventricles were pooled, minced and dispersed by three 20-min incubations at 37° C. in Ads buffer (116 mM NaCl, 20 mM HEPES, 10 mM NaH2PO4, 5.5 mM glucose, 5 mM KCl, 0.8 mM MgSO4, pH 7.4) containing collagenase Type II (65 units/ml, Worthington) and pancreatin (0.6 mg/ml, GibcoBRL). Dispersed cells were applied to a discontinuous gradient of 40.5% and 58.5% (v/v) Percoll (Amersham Biosciences), centrifuged, and myocytes collected from the interface layer. Myocyte preparations were pre-plated in Dulbecco's modified Eagle's medium (DMEM, Cellgro), supplemented with 10% (v/v) fetal bovine serum (FBS, HyClone), 4 mM L-glutamine and 1% penicillin/streptomycin for 1 hour at 37° C. to reduce fibroblast contamination, then plated at a density of 2.5×10^5 cells per well on 6-well tissue culture plates (or 10,000 cells/well on 96-well tissue culture plates) coated with a 0.2% (w/v) gelatin solution. After 24 hours in culture, myocyte preparations were transferred to serum-free maintenance medium (DMEM supplemented with 0.1% (v/v) Nutridoma (Roche), L-glutamine and penicillin/streptomycin). Where indicated, NRVM were treated with test compounds for a period of 48 h. For immunofluorescence applications, NRVM cultures were fixed, incubated with primary antibodies against alpha skeletal actin and atrial natriuretic factor, then incubated with rhodamine- or flurorescein-conjugated secondary antibodies. For HDAC localization assays, NRVM were plated to clear bottomed 96-well plates and infected overnight with recombinant adenovirus encoding HDAC5 fused to green fluorescent protein (multiplicity of infection=50). The next day, medium was replaced with serum-free maintenance medium for 4 hours, and test compounds added. After two hours, NRVM were fixed and imaged by fluorescent microscopy.

[5] = tested on: neonatal rat ventricular myocytes (NRVM); test: Cytotoxicity by adenylate kinase (AK) release from NRVM; type: cell-based
Description: Hypertrophy and toxicity assays. Primary hypertrophy endpoints for NRVM included quantitation of: ANF secretion, total cellular protein and cell volume. ANF in media supernatants was quantitated by competitive ELISA using a monoclonal anti-ANF antibody (Biodesign) and a biotinylated ANF peptide (Phoenix Peptide). Total cellular protein was quantitated by standard Coomassie dye-binding assay; cells were lysed in protein assay reagent (BioRad) and absorbance at A595 was measured after 1 hour. For cell volume measurements, NRVM cultured in 6-well dishes were harvested by treatment with trypsin (Cellgro). After recovery by centrifugation, cell pellets were washed in PBS, resuspended in 10 ml IsoFlow electrolyte solution (Beckman-Coulter) and analyzed with a Z2 Coulter Particle Counter and Size Analyzer (Beckman-Coulter). Cytotoxicity was quantitated by measuring release of adenylate kinase (AK) from cultured NRVM into culture medium (ToxiLight kit, Cambrex).

Nc1cc(-c2ccccc2)nc2ccccc12 [Compound 20068, 2-Phenyl-quinolin-4-ylamine]
% Inhibition of Binding (5-HT1): 19%
inhibition at 10 µM (5-HT2B): 76%
inhibition at 10 µM (5-HT2C): 63%
attenuation of 18264-dependent induction of MCIP1 protein expression [1]: blocking 18264-dependent increases in MCIP1 protein in a dose-dependent manner
block of 18264-dependent ANF secretion [2]: effective at blocking
attenuation of PE-dependent increase in total cellular protein [3]: attenuated
reduction of PE-dependent increase in cardiomyocyte cell volume ([4]; 3 μM compound): 49%
attenuation of PE-dependent increase in cell volume (in words) ([4]; 0.1-3 μM compound): attenuated
block of 18264-dependent nuclear export of HDAC5 (HDAC5; NRVM pretreated with 20068 (2 μM) one hour before 18264 (1 μM)): effective at blocking
cytotoxicity (AK release), in words ([5]; presence or absence of hypertrophic stimuli, up to 3 micromolar, 48 hours): no significant cytotoxicity

CNC[C@H](O)c1cccc(O)c1 [PE, phenylephrine, reference compound]
nuclear export of HDAC5-GFP (HDAC5; NRVM, two hours, 18264 1 μM, PE 20 μM): moves to cytoplasm

Triton X-100 [reference compound]
fold change in AK release versus unstimulated control ([5]; 0.1% Triton X-100, positive control): approximately 6.5 fold

O=C(c1ccc(F)cc1)C1CCN(CCn2c(=O)[nH]c3ccccc3c2=O)CC1 [ketanserin, reference compound]
attenuation of 18264-dependent induction of MCIP1 protein expression [1]: attenuated
block of 18264-dependent ANF secretion [2]: able to block
